Test results published in ChEMBL document CHEMBL3102765, “Unsymmetrical 1,5-diaryl-3-oxo-1,4-pentadienyls and their evaluation as antiparasitic agents” (Bioorg Med Chem, 2014).
pEC50, pIC50: −log10 of the molar value.

What was measured:
[1] = Cytotoxicity against monkey LLC-MK2 cells after 48 hrs by MTT assay; assay type: cell-based, Macaca mulatta; conditions: rhesus monkey
[2] = Cytotoxicity against mouse J774A1 cells after 48 hrs by MTT assay; assay type: cell-based, J774.A1
[3] = test system: Trypanosoma cruzi; test: Antiparasitic activity against trypomastigote form of Trypanosoma cruzi Y infected in LLCMK2 cells assessed as parasite lysis after 24 hrs by Pizzi-Brener method; assay type: functional, organism-based; conditions: LLC-MK2, 24 h
[4] = test system: Trypanosoma cruzi; test: Antiparasitic activity against epimastigote form of Trypanosoma cruzi Y after 96 hrs by hemocytometry; assay type: functional, organism-based
[5] = test system: Leishmania amazonensis; test: Antiparasitic activity against promastigote form of Leishmania amazonensis MHOM/BR/Josefa after 72 hrs by hemocytometry; assay type: functional, organism-based

Row | pEC50 [3] | pIC50 [4] | pIC50 [5] | SMILES | CC50 at 48 h [1] [µM] | CC50 at 48 h [2] [µM]
1 | < 4.00 | < 4.00 | < 4.00 | C/C(=C\c1ccc(N(C)C)cc1)C(=O)/C=C/c1ccc([N+](=O)[O-])cc1 | 167 | 967
2 | 4.19 | 4.77 | 4.94 | C/C(=C\c1ccccc1)C(=O)/C=C/c1ccc([N+](=O)[O-])cc1 | 43.3 | 26
3 | 4.11 | 4.62 | 4.67 | C/C(=C\c1ccc(N(C)C)cc1)C(=O)/C=C/c1ccccc1 | 191 | 28.5
4 | < 4.00 | 4.85 | 4.92 | C/C(=C\c1ccc([N+](=O)[O-])cc1)C(=O)/C=C/c1ccc(N(C)C)cc1 | 25.9 | 24.7
5 | < 4.00 | 4.63 | 4.66 | COc1ccc(/C=C/C(=O)/C(C)=C/c2ccc(OC)cc2)cc1 | 75 | 34.1
6 | < 4.00 | 4.67 | 4.74 | COc1ccc(/C=C(\C)C(=O)/C=C/c2ccc(N(C)C)cc2)cc1 | 411 | 36.2
7 | 4.14 | 4.80 | 4.82 | C/C(=C\c1ccccc1)C(=O)/C=C/c1ccccc1 | 33.6 | 34.5
8 | < 4.00 | 4.84 | 4.69 | COc1ccc(/C=C/C(=O)/C(C)=C/c2ccccc2)cc1 | 93 | 51
9 | 4.13 | 5.00 | 4.81 | COc1ccc(/C=C/C(=O)/C(C)=C/c2ccc([N+](=O)[O-])cc2)cc1 | 172 | 36.6
10 |  |  |  | O=C(Cn1ccnc1[N+](=O)[O-])NCc1ccccc1 [BENZNIDAZOLE] | 615 | 
11 | < 4.00 | 4.09 | < 4.00 | CC(=O)/C(C)=C/c1ccc([N+](=O)[O-])cc1 | 266 | 70.5
12 | < 4.00 | < 4.00 | 4.70 | COc1ccc(/C=C/C(=O)/C(C)=C/c2ccc(N(C)C)cc2)cc1 | 285 | 34.3
13 | 4.81 | 5.74 | 5.47 | C/C(=C\c1ccc([N+](=O)[O-])cc1)C(=O)/C=C/c1ccc([N+](=O)[O-])cc1 | 32.5 | 43
14 | < 4.00 | 4.88 | 4.70 | C/C(=C\c1ccccc1)C(=O)/C=C/c1ccc(N(C)C)cc1 | 53 | 20.2
15 | < 4.00 | < 4.00 | < 4.00 | CC(=O)/C(C)=C/c1ccccc1 | 688 | 742
16 | 4.76 | 5.46 | 4.87 | C/C(=C\c1ccc([N+](=O)[O-])cc1)C(=O)/C=C/c1ccccc1 | 264 | 47.3
17 | < 4.00 | < 4.00 | < 4.00 | COc1ccc(/C=C(\C)C(C)=O)cc1 | 280 | 240
18 | 4.13 | 4.78 | 4.65 | COc1ccc(/C=C(\C)C(=O)/C=C/c2ccccc2)cc1 | 44 | 54
19 | < 4.00 | 4.60 | 4.69 | C/C(=C\c1ccc(N(C)C)cc1)C(=O)/C=C/c1ccc(N(C)C)cc1 | 314 | 10
20 | < 4.00 | 4.60 | 4.83 | COc1ccc(/C=C(\C)C(=O)/C=C/c2ccc([N+](=O)[O-])cc2)cc1 | 20.1 | 30
21 |  |  | 7.22 | C[C@@H]1[C@H](O)[C@@H](C)/C=C/C=C/C=C/C=C/C=C/C=C/C=C/[C@H](O[C@@H]2O[C@H](C)[C@@H](O)[C@H](N)[C@@H]2O)C[C@@H]2O[C@](O)(C[C@@H](O)C[C@@H](O)[C@H](O)CC[C@@H](O)C[C@@H](O)CC(=O)O[C@H]1C)C[C@H](O)[C@H]2C(=O)O [AMPHOTERICIN B] |  | 
22 | < 4.00 | < 4.00 | < 4.00 | CC(=O)/C(C)=C/c1ccc(N(C)C)cc1 | 150 | 160
